The source of these data is patent US20230220021A1, “CYCLIC PEPTIDE INHIBITORS OF PSD-95 AND USES THEREOF” (University of Copenhagen, priority 2020, published 2023).

Where a SMILES comes first, the peptide text is derived from it. [ ]: non-standard residue; d: D form.

In general, Ki refers to the dissociation constant of the complex between target and ligand, obtained from inhibition or displacement.

The target of the first assay is T1, PSD-95-PDZ2 (Homo sapiens, UniProt P78352).
T1 construct: 7xHis (N); made in house; host or cells: Escherichia coli B21 pLys (for the mutants, 'as previously described')
T1 sequence (P78352 160-246 limits assumed): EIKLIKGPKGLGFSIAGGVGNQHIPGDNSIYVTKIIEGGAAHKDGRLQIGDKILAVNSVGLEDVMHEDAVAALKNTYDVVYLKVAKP
In words: Fluorescence polarization (FP) competition assay against cyclic nNOS TAMRA probe. The conditions noted are these: FP competition. In kind it is binding.
Experimental: Fluorescence polarization (FP). FP assays were performed in a 384-well plate format. Fluorescence polarization was measured using a Safire 2 plate reader. The instrument Z-factor was optimized for each assay. The G-factor was calibrated to an initial milli polarization value of 20. The wavelength for the cyclic nNOS β-hairpin TAMRA probe was: ex: 530 nm and em: 580 nm. Every measurement was performed in NaPI 50 mM, 50 mM NaCl and 1% BSA at pH 7.2, 25° C. […] The curves were done in triplicates. Then, the polarization was fitted into a one-site binding model using Prism software 8.0 (GraphPad), from which the Kd can be measured. […] The mili polarization (mP) values were plotted as a function of peptide concentration and fitted to a sigmoidal dose-response curve using Prism software 8.0 (GraphPad). The Ki values were calculated according to Nikolovska-Coleska Z. et al.^40-41
Regarding “Cyclo-(THLETT ? -Me-FTGDGTPKTIRVTQpG(Qα)) (THLETTXTGDGTPKTIRVTQPGQ; cyclic; N-methyl F111; D-proline; cyclized peptide; (7)..(7) X is N-Me-F; (21)..(21) is D-AA) [SEQ ID NO: 90]”, the “effect on interaction with PSD-95-PDZ2 (in words)” value is listed as “abolished the interaction”.

Still in this assay, the particulars now being: FP competition, cyclic nNOS TAMRA probe; mean of triplicates; N.B. = not binding.
Take “86 (THXETTFTGDGTPKTIRVTQPGQ; cyclized peptide; (3)..(3) X is N-Me-L; (21)..(21) is D-AA) [compound 86]”: the Ki result is reported as “N.B”.

Consider “105 (THLETXFTGDGTPKTIRVTQPGQ; cyclized peptide; (6)..(6) X is pT; (21)..(21) is D-AA) [compound 105]”, for which the Ki result is “N.B”.

Consider “87 (THLXTTFTGDGTPKTIRVTQPGQ; cyclized peptide; (4)..(4) X is N-Me-E; (21)..(21) is D-AA) [compound 87]”, for which the Ki entry is “N.B”.

Still in this assay, the particulars now being: FP competition, cyclic nNOS TAMRA probe; mean of triplicates; N.B. = not binding; read-out: Ki.
For `CC[C@H](C)[C@@H]1NC(=O)[C@H]([C@@H](C)O)NC(=O)[C@H](CCCCN)NC(=O)[C@@H]2CCCN2C(=O)[C@H]([C@@H](C)O)NC(=O)CNC(=O)[C@H](CC(=O)O)NC(=O)CNC(=O)[C@H]([C@@H](C)O)NC(=O)[C@H](Cc2ccccc2)NC(=O)[C@H]([C@@H](C)O)NC(=O)[C@H]([C@@H](C)O)NC(=O)[C@H](CCC(=O)O)NC(=O)[C@H](CC(C)C)NC(=O)[C@H](Cc2c[nH]cn2)NC(=O)[C@H]([C@@H](C)O)NC(=O)[C@H](CCC(N)=O)NC(=O)CNC(=O)[C@H]2CCCN2C(=O)[C@H](CCC(N)=O)NC(=O)[C@H]([C@@H](C)O)NC(=O)[C@H](C(C)C)NC(=O)[C@@H](CCCNC(=N)N)NC1=O` [compound 126], the Ki was determined as 9 µM.

For the compound `CC[C@H](C)[C@@H]1NC(=O)[C@H]([C@@H](C)O)NC(=O)[C@H](CCCCN)NC(=O)[C@@H]2CCCN2C(=O)[C@H]([C@@H](C)O)NC(=O)CNC(=O)[C@H](CC(=O)O)NC(=O)CNC(=O)[C@H]([C@@H](C)O)NC(=O)[C@H](Cc2ccccc2)NC(=O)[C@H]([C@@H](C)O)NC(=O)[C@H]([C@@H](C)O)NC(=O)[C@H](CCC(=O)O)NC(=O)[C@H](CC(C)C)NC(=O)[C@H](Cc2c[nH]cn2)NC(=O)[C@H]([C@@H](C)O)NC(=O)[C@H](CCC(N)=O)NC(=O)CNC(=O)[C@H]2CCCN2C(=O)[C@H](CCC(N)=O)NC(=O)[C@@H]([C@H](C)O)NC(=O)[C@H](C(C)C)NC(=O)[C@H](CCCNC(=N)N)NC1=O` [compound 128], the Ki worked out at 1.83 µM.

As to `CC[C@H](C)[C@@H]1NC(=O)[C@H]([C@@H](C)O)NC(=O)[C@H](CCCCN)NC(=O)[C@@H]2CCCN2C(=O)[C@H]([C@@H](C)O)NC(=O)CNC(=O)[C@H](CC(=O)O)NC(=O)CNC(=O)[C@H](CC(=O)O)NC(=O)[C@H](Cc2ccccc2)NC(=O)[C@H]([C@@H](C)O)NC(=O)[C@H]([C@@H](C)O)NC(=O)[C@H](CCC(=O)O)NC(=O)[C@H](CC(C)C)NC(=O)[C@H](Cc2c[nH]cn2)NC(=O)[C@H]([C@@H](C)O)NC(=O)[C@H](CCC(N)=O)NC(=O)CNC(=O)[C@H]2CCCN2C(=O)[C@H](CCC(N)=O)NC(=O)[C@H]([C@@H](C)O)NC(=O)[C@H](C(C)C)NC(=O)[C@H](CCCNC(=N)N)NC1=O` [compound 19] (cyclo(THLETTFDGDGTPKTIRVTQ[dP]GQ)), the Ki stood at 0.95 µM.

With `CC[C@H](C)[C@@H]1NC(=O)[C@H]([C@@H](C)O)NC(=O)[C@@H](CCCCN)NC(=O)[C@@H]2CCCN2C(=O)[C@H]([C@@H](C)O)NC(=O)CNC(=O)[C@H](CC(=O)O)NC(=O)CNC(=O)[C@H]([C@@H](C)O)NC(=O)[C@H](Cc2ccccc2)NC(=O)[C@H]([C@@H](C)O)NC(=O)[C@H]([C@@H](C)O)NC(=O)[C@H](CCC(=O)O)NC(=O)[C@H](CC(C)C)NC(=O)[C@H](Cc2c[nH]cn2)NC(=O)[C@H]([C@@H](C)O)NC(=O)[C@H](CCC(N)=O)NC(=O)CNC(=O)[C@H]2CCCN2C(=O)[C@H](CCC(N)=O)NC(=O)[C@H]([C@@H](C)O)NC(=O)[C@H](C(C)C)NC(=O)[C@H](CCCNC(=N)N)NC1=O` [compound 123], the Ki was 23.2 µM.

For `CC[C@H](C)[C@@H]1NC(=O)[C@H]([C@@H](C)O)NC(=O)[C@H](CCCCN)NC(=O)[C@@H]2CCCN2C(=O)[C@H]([C@@H](C)O)NC(=O)CNC(=O)[C@H](CC(=O)O)NC(=O)CNC(=O)[C@H]([C@@H](C)O)NC(=O)[C@H](Cc2ccccc2)NC(=O)[C@H]([C@@H](C)O)NC(=O)[C@H]([C@@H](C)O)NC(=O)[C@H](CCC(=O)O)NC(=O)[C@H](CC(C)C)NC(=O)[C@H](Cc2c[nH]cn2)NC(=O)[C@H]([C@@H](C)O)NC(=O)[C@H](CCC(N)=O)NC(=O)CNC(=O)[C@H]2CCCN2C(=O)[C@@H](CCC(N)=O)NC(=O)[C@H]([C@@H](C)O)NC(=O)[C@H](C(C)C)NC(=O)[C@H](CCCNC(=N)N)NC1=O` [compound 129], the Ki was determined as 11.1 µM.

The same assay, now with this note: FP inhibition constant normalized to WT value.
In the case of `CC[C@H](C)[C@@H]1NC(=O)[C@H]([C@@H](C)O)NC(=O)[C@H](CCCCN)NC(=O)[C@@H]2CCCN2C(=O)[C@H](CS)NC(=O)CNC(=O)[C@H](CC(=O)O)NC(=O)CNC(=O)[C@H]([C@@H](C)O)NC(=O)[C@H](Cc2ccccc2)NC(=O)[C@H]([C@@H](C)O)NC(=O)[C@H]([C@@H](C)O)NC(=O)[C@H](CCC(=O)O)NC(=O)[C@H](CC(C)C)NC(=O)[C@H](Cc2c[nH]cn2)NC(=O)[C@H]([C@@H](C)O)NC(=O)[C@H](CCC(N)=O)NC(=O)CNC(=O)[C@H]2CCCN2C(=O)[C@H](CCC(N)=O)NC(=O)[C@H]([C@@H](C)O)NC(=O)[C@H](C(C)C)NC(=O)[C@H](CCCNC(=N)N)NC1=O` [compound 38] (cyclo(THLETTFTGDGCPKTIRVTQ[dP]GQ)), the “Relative Ki (Ki mut/Ki WT)” value amounted to 0.91.

Turning to `CC[C@H](C)[C@@H]1NC(=O)[C@H](CC(N)=O)NC(=O)[C@H](CCCCN)NC(=O)[C@@H]2CCCN2C(=O)[C@H]([C@@H](C)O)NC(=O)CNC(=O)[C@H](CC(=O)O)NC(=O)CNC(=O)[C@H]([C@@H](C)O)NC(=O)[C@H](Cc2ccccc2)NC(=O)[C@H]([C@@H](C)O)NC(=O)[C@H]([C@@H](C)O)NC(=O)[C@H](CCC(=O)O)NC(=O)[C@H](CC(C)C)NC(=O)[C@H](Cc2c[nH]cn2)NC(=O)[C@H]([C@@H](C)O)NC(=O)[C@H](CCC(N)=O)NC(=O)CNC(=O)[C@H]2CCCN2C(=O)[C@H](CCC(N)=O)NC(=O)[C@H]([C@@H](C)O)NC(=O)[C@H](C(C)C)NC(=O)[C@H](CCCNC(=N)N)NC1=O` [compound 39] (cyclo(THLETTFTGDGTPKNIRVTQ[dP]GQ)), the “Relative Ki (Ki mut/Ki WT)” value is 12.59.

Consider `CC[C@H](C)[C@@H]1NC(=O)[C@H]([C@@H](C)O)NC(=O)[C@H](CCCCN)NC(=O)[C@@H]2CCCN2C(=O)[C@H]([C@@H](C)O)NC(=O)CNC(=O)[C@H](CC(=O)O)NC(=O)CNC(=O)[C@H](CC(=O)O)NC(=O)[C@H](Cc2ccccc2)NC(=O)[C@H]([C@@H](C)O)NC(=O)[C@H]([C@@H](C)O)NC(=O)[C@H](CCC(=O)O)NC(=O)[C@H](CC(C)C)NC(=O)[C@H](Cc2c[nH]cn2)NC(=O)[C@H]([C@@H](C)O)NC(=O)[C@H](CCC(N)=O)NC(=O)CNC(=O)[C@H]2CCCN2C(=O)[C@H](CCC(N)=O)NC(=O)[C@H]([C@@H](C)O)NC(=O)[C@H](C(C)C)NC(=O)[C@H](CCCNC(=N)N)NC1=O` [compound 19] (cyclo(THLETTFDGDGTPKTIRVTQ[dP]GQ)), for which the “Relative Ki (Ki mut/Ki WT)” value is 0.63.

Take `CC(C)C[C@@H]1NC(=O)[C@H](Cc2c[nH]cn2)NC(=O)[C@H]([C@@H](C)O)NC(=O)[C@H](CCC(N)=O)NC(=O)CNC(=O)[C@H]2CCCN2C(=O)[C@H](CCC(N)=O)NC(=O)[C@H]([C@@H](C)O)NC(=O)[C@H](C(C)C)NC(=O)[C@H](CCCNC(=N)N)NC(=O)[C@H](Cc2ccc(O)cc2)NC(=O)[C@H]([C@@H](C)O)NC(=O)[C@H](CCCCN)NC(=O)[C@@H]2CCCN2C(=O)[C@H]([C@@H](C)O)NC(=O)CNC(=O)[C@H](CC(=O)O)NC(=O)CNC(=O)[C@H]([C@@H](C)O)NC(=O)[C@H](Cc2ccccc2)NC(=O)[C@H]([C@@H](C)O)NC(=O)[C@H]([C@@H](C)O)NC(=O)[C@H](CCC(=O)O)NC1=O` [compound 42] (cyclo(THLETTFTGDGTPKTYRVTQ[dP]GQ)): the “Relative Ki (Ki mut/Ki WT)” value is given as 1.07.
